For 38 molecules, GI50, TGI and outcome results are on record in PubChem BioAssay (NCI).

This assay relates to MDA-MB-468 breast. The assay is described as follows: inhibition of tumour cell growth, NCI panel, 48 h.

Several values for one entry are separate records, joined by “and”; a condition that tells them apart may be missing. Identical values can stand only once.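 Method: 48-hour compound exposure of cells in 96-well plates, five concentrations, linear interpolation of endpoints. Here, GI50 denotes the concentration required for 50% inhibition of growth. At the TGI there is no net growth.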 Activity calls are given as the source filed them. Rule as the data show it: active = GI50 below about 0.43 µM; inactive = the rest.

In the case of `O=C(/C=C/c1ccccc1)n1c(-c2ccc(Cl)cc2)nc2ccccc21`, the GI50 was 1.52 µM and the TGI was 4.32 µM.
For `O=C(N/N=C/c1ccc([N+](=O)[O-])s1)c1[nH]c2ccc(Br)cc2c1-c1ccccc1`, in that order: 0.731 µM and 22.2 µM.
For `CCCC(CCC)C(=O)OCC1(CO)C/C(=C\c2ccc(F)cc2)C(=O)O1` (stereo not given), in that order: 11.3 µM and 24.2 µM.
For the molecule `CCC(CNc1cc(OC)cc2cccnc12)NC1CCCCC1` (stereo not given), the GI50 is 7.66 µM and the TGI came to 35.5 µM.
For `OCC(O)c1nc2ccc3[nH]ncc3c2c2c1CCCC2` (stereo not given), in that order: 1.04 µM and 2.11 µM.
For `N#Cc1c(NC(=O)c2ccccc2C(F)(F)F)sc2c1CCC(=O)C2`, in that order: 1.69 µM and 4.68 µM.
For `COc1ccc2c(c1)CC[C@H](O)/C2=C/c1cc(OC)c(OC)c(OC)c1`, in that order: 0.2 µM and 15.8 µM.
Consider `CNC(=O)Cc1nc(-c2cccc(NS(=O)(=O)c3c(F)cccc3F)c2F)c(-c2ccnc(Nc3ccccc3)n2)s1`, for which the GI50 is over 23.4 µM and the TGI was over 50 µM.
For `O=C1/C(=C\c2ccccn2)c2ccccc2N1c1c(Cl)cccc1Cl`, in that order: 1.26 µM and 3.1 µM.
For `Nc1nc(N)c2cc(NCc3ccc(Cl)c(Cl)c3)ccc2n1`, in that order: 1.06 µM and 2.23 µM.
As for `COc1ccc(/C=N\Nc2ccc([N+](=O)[O-])cn2)cc1OC`, the GI50 is over 100 µM and the TGI is over 100 µM.
`CO[C@H](C(=O)[C@@H](O)[C@@H](C)O)[C@@H]1Cc2cc3cc(OC4CC(OC5CC(O)C(O)C(C)O5)C(O)C(C)O4)c(C)c(O)c3c(O)c2C(=O)[C@H]1OC1CC(OC2CC(OC3CC(C)(O)C(O)C(C)O3)C(O)C(C)O2)C(O)C(C)O1` (stereo not given in full): the result was inactive.
For `NC(=O)c1cccc(Nc2nccc(Nc3cccc4[nH]ncc34)n2)c1`, the GI50 is 2.12 µM and the TGI turned out to be 9.35 µM.
With `Cc1cc(N2CCSCC2)nc(NC2CCCC(Nc3ccnc4cc(Cl)ccc34)C2)n1` (stereo not given), the GI50 was 1.58 µM and the TGI is 3.35 µM.
For `Cc1ccc(C)c(C2NC(=O)c3ccccc3N2)c1` (stereo not given), in that order: 4.38 µM and over 100 µM.
For `COc1cc(-c2nc(-c3nc4ccccc4[nH]3)cc3c2[nH]c2ccccc23)cc(OC)c1OC`, in that order: 3.32 µM and over 100 µM.
`CCOC(=O)CC1C(COC(=O)NC)OC(n2cnc3c(NC(=O)Nc4ccccc4)ncnc32)C1O[Si](C)(C)C(C)(C)C` (stereo not given): the GI50 is 19.7 µM and the TGI is 94.1 µM.
For `COc1cc(CNc2ccccc2C(=O)N2CCN(C(=O)c3cc(-c4cc(OC)c(OC)c(OC)c4)n4nc(-c5ccccc5)cc4n3)CC2)cc(OC)c1OC`, in that order: 2.1 µM and 8.45 µM.
Regarding `COc1ccc2[nH]cc(-c3nc(N)nnc3-c3cn(C)c4ccc(Br)cc34)c2c1`, the GI50 was 0.698 µM and the TGI turned out to be 16 µM.
As to `Cc1sc2c(c1C)C(c1ccc(Cl)cc1)=N[C@@H](CC(=O)OC(C)(C)C)c1nnc(C)n1-2`, the GI50 was 0.0708 µM and 0.112 µM; the TGI is 1.52 µM and 10.8 µM.
With `COc1ccccc1CNCCCN1C(=O)c2ccc3c4c(ccc(c24)C1=O)C(=O)N(CCCCNCCCN)C3=O`, the GI50 was 0.267 µM and the TGI came out at 0.835 µM.
For `Cc1ccc(N(CC(=O)Nc2ccc(S(=O)(=O)N3CCC(N4CCCC4)CC3)cc2)S(=O)(=O)c2ccc(Cl)cc2)cc1`, in that order: 1.65 µM and 3.48 µM.
Regarding `COc1cccc(C2c3cc4c(cc3OC(N3CCCC3)C2C)OCO4)c1O` (stereo not given), the GI50 was 3.33 µM and the TGI is 15.8 µM.
As to `C=C1CCC2C(C)(COC(=O)CC)C(OC(=O)CC)CCC2(C)C1C/C=C1/C(=O)OCC1OC(=O)CC` (stereo not given), the GI50 is 1.74 µM and the TGI is 3.4 µM.
For `Cn1c2ccc(Br)cc2c2c3c(c4c5ccccc5[nH]c4c21)C(=O)N(O)C3=O`, in that order: 0.214 µM and 0.638 µM.
For `CC(C)(C)[Si](C)(C)OC1[C@@H](O[Si](C)(C)C(C)(C)C)[C@@H](CNC(=O)NC(=O)CCl)O[C@H]1n1cnc2c(NC(=O)Nc3ccccc3)ncnc21` (stereo not given in full), in that order: 0.839 µM and 1.91 µM.
In the case of `CN1C(=O)N[C@H]2[C@@H]3NC(=O)c4ccc(Br)n4[C@@H]3C[C@]21O`, the GI50 was 0.0253 µM and the TGI came out at 0.173 µM.
Take `CCN(CC)CCCC(C)N=C(C1=C(C(=NC(C)CCCN(CC)CC)c2cccc(OC)c2)C(=O)NC1=O)c1cccc(OC)c1` (stereo not given): the GI50 is 0.869 µM and the TGI was 2.07 µM.
For `Cc1cc(CC(C)CC(C)(C)C)n(O)c(=O)c1` (stereo not given) (tested in a mixture with another compound), in that order: 0.273 µM and 1.06 µM.
For `COc1cc(Nc2nc3ccccc3cc2C(=O)Nc2ccc(F)c(F)c2)cc(OC)c1OC`, in that order: 2.01 µM and 6.58 µM.
For `COc1cccc(NC(=O)c2sc3nc4c(cc3c2N)C(=O)CCC4)c1`, in that order: 0.0467 µM and over 100 µM.
On to `COC(=O)c1cc(O)c2c(c1C(=O)OC)C[C@H]1[C@@H]3CC=C4C[C@@H](O)CC[C@]4(C)[C@H]3CC[C@]21C`, for which the GI50 is 2.87 µM and the TGI stood at 18.1 µM.
For `Cc1nc(N2CCC3(CC2)CO[C@@H](C)[C@H]3N)c(CO)nc1Sc1ccnc(N)c1Cl`, in that order: 0.228 µM and 4.86 µM.
For `CC(C)(C)CC(C)(C)NCc1cc(C(C)(C)C)cc(CNC(C)(C)CC(C)(C)C)c1O`, in that order: 1.26 µM and 2.85 µM.
For `O=C(OCc1ncc(-c2ccc(C(F)(F)F)cc2)c(NC2CCCCCC2)n1)c1c(F)c(F)c(F)c(F)c1F`, in that order: 2 µM and 5.01 µM.
Regarding `CCN(CC)CCCNC(=O)c1c2c(n3ccccc13)C(=O)c1ncccc1C2=O`, the GI50 was 0.283 µM and the TGI amounted to 1.08 µM.
For `O=C(Nc1ccc(-n2ccc3c(NC(=O)c4ccccc4)ncnc32)cc1)Nc1cccc(Cl)c1Cl`, in that order: 1.18 µM and 3.42 µM.
For `COc1ccc(C(=O)c2cc3c(N)c(C(=O)Nc4ccc(C)cc4)sc3nc2C)cc1`, in that order: 1.87 µM and 7.08 µM.
